From US20150110865A1, “CNS STIMULANT AND OPIOID RECEPTOR ANTAGONIST COMBINATION AS A NON-ADDICTIVE, NON-AVERSIVE AND SYNERGISTIC ANTI-OBESITY TREATMENT” (FLORIDA STATE UNIVERSITY RESEARCH FOUNDATION, priority 2013, published 2015)

Tests used:
[1] = target: T1, μ opioid receptor (MOPR) (Mus musculus, UniProt P42866); format: biochemical; design: dose or concentration left out as unconfirmed; conditions: caudate-putamen membranes; FIG. 3
T1 construct: Caudate-putamen and nucleus accumbens are identified in the frozen slices based on anatomical landmarks and samples from these two brain regions are collected; from tissue; host or cells: mouse brain: caudate-putamen and nucleus accumbens membrane preparations
T1 sequence (P42866 whole entry): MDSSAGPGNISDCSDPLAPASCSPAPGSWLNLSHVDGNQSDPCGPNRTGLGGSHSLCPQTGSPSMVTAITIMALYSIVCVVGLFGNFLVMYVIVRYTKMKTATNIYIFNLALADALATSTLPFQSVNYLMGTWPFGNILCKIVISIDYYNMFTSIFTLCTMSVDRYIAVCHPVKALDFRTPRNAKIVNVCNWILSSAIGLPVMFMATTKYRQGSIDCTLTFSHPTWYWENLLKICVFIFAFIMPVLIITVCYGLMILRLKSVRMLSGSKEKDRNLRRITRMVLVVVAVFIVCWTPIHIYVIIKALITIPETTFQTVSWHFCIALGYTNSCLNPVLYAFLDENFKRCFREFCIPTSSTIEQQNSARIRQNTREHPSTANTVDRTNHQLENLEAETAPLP
Description: Activity of the μ opioid receptor (MOPR) is assayed by using [35S]GTPγS binding on membrane preparations. The same mice that are used in the conditioned place preference assay are used for these assays Immediately upon completion of the behavioral assay, the mice are sacrificed by cervical dislocation and the brain is dissected rapidly. The brain is frozen in liquid nitrogen and 1.0 mm slices of the brain were prepared in the coronal plane using a tissue-slicing matrix (Model 15003; Ted Pella, Redding, Calif.). Caudate-putamen and nucleus accumbens are identified in the frozen slices based on anatomical landmarks and samples from these two brain regions are collected using a tissue punch. The samples are homogenized using teflon pestle in Eppendorf tubes (10 strokes) in 300 μl of homogenization buffer containing 25 mMTris/pH 7.4, 5 mMEDTA and 0.1 mMPMSF and kept on ice. Homogenate is diluted to 2.5 ml using the homogenization buffer and centrifuged at −350,000 g for 30 min. After washing 3 times with 50 mM Tris-HCl/pH 7.4, the pellets are re-suspended in 50 mM Tris-HCl/pH 7.4 containing 0.32 M sucrose, passed through a 26.5 G needle 3 times, frozen in dry ice/ethanol and stored in −80° C. until use.
(§1) Nonspecific binding is defined by incubation in the presence of 10 μM GTPγS. […] Radioactivity on filters is determined by liquid scintillation counting. […]

[2] = tested on: C57/B6 mice; assay: Conditioned place preference (CPP); format: in vivo, mouse; conditions: for time spent in drug-paired chamber, Test sessions compared to PC sessions: p>0.05, n=6; for CPP score compared to saline control group: p>0.05; for time spent in drug-paired chamber, Test sessions compared to pre-conditioning sessions: FIG. 1; for CPP score compared to saline-treated group: FIG. 2
From the text: C57/B6 mice are purchased from Charles River Laboratories. Only male mice are used.
A three-chamber place preference apparatus is used. The apparatus has two equally sized (16.8×12 cm) preference chambers connected by a central chamber (7.2×12 cm), and is outfitted with sliding guillotine-style doors between each chamber. Photobeams connected to a computer system can record animal location and time spent in that location. The central chamber has a gray colored smooth floor. The preference chamber is either white with a mesh floor or black with a bar floor. The CPP procedure included three phases: Pre-conditioning, conditioning and test phases.
The pre-conditioning phase is performed on day 1 (two sessions daily, AM and PM). In each pre-conditioning session, mice are initially placed in the central gray chamber for 2 min and then allowed free access to the white and black chambers for 20 min. The time spent in each chamber is recorded.
For the next phase in the assay, the conditioning phase, the non-preferred chamber (i.e. the chamber in which less time is spent) is designated as the drug-paired chamber and the preferred chamber (i.e. the chamber in which more time was spent) is designated as the vehicle-paired chamber.
The conditioning phase is carried out on each of days 2-6. There are two conditioning sessions daily, morning session between 8 and 10 AM and afternoon session between 2 and 4 PM. There is one session each for vehicle-paired (saline as vehicle) and drug-paired (MPH as drugs) conditions on each day of the conditioning phase. The mice are administered saline or drug (i.p.) in the saline- or drug-paired sessions, respectively and placed in the central gray chamber for 2 min (to isolate injection effect to the central chamber) and then confined to the vehicle-or-drug-paired chamber, respectively for 30 min. On the first day of the conditioning phase, the mouse receive saline during the morning session and the drug in the afternoon session. The next day, the order of treatments is reversed: drug in the morning session and saline in the afternoon session. These two paradigms are alternated for the remainder of the conditioning phase. This conditioning strategy is used for all the experiments except those using naltrexone.
Saline is administered on the first day and naltrexone (or naltrexone+MPH) is administered the following day. Administrations of saline and naltrexone are alternated for each of the next 9 days (total duration of conditioning is 10 days).
During the test phase, (one session on the day after the conditioning phase) the mice are placed in the central gray chamber for 2 min and then given free access to the drug- and saline-paired chambers for 20 min. The time spent in each chamber is recorded. The difference between time spent in the drug-paired chamber during the test phase and pre-conditioning phases was calculated as the CPP score. Saline and the drugs are administered intraperitoneally. All the behavioral analyses are performed during the light phase of the light-dark cycle.
Differences between two experimental groups are analyzed for statistical significance by using Student's t-test. Treatment effects on multiple groups are tested for significance by using one-way ANOVA and the differences among the groups are tested for significance by using Dunnett's multiple comparisons test.

[3] = tested on: μ opioid receptor (MOPR); assay: MOPR activity by DAMGO-stimulated [35S]GTPγS binding in brain membranes of drug-treated mice after the CPP assay; format: in vivo, mouse; conditions: low dose MPH 0.75 mg/kg; either brain region; FIG. 4
Description: Activity of the μ opioid receptor (MOPR) is assayed by using [35S]GTPγS binding on membrane preparations. The same mice that are used in the conditioned place preference assay are used for these assays Immediately upon completion of the behavioral assay, the mice are sacrificed by cervical dislocation and the brain is dissected rapidly. The brain is frozen in liquid nitrogen and 1.0 mm slices of the brain were prepared in the coronal plane using a tissue-slicing matrix (Model 15003; Ted Pella, Redding, Calif.). Caudate-putamen and nucleus accumbens are identified in the frozen slices based on anatomical landmarks and samples from these two brain regions are collected using a tissue punch. The samples are homogenized using teflon pestle in Eppendorf tubes (10 strokes) in 300 μl of homogenization buffer containing 25 mMTris/pH 7.4, 5 mMEDTA and 0.1 mMPMSF and kept on ice. Homogenate is diluted to 2.5 ml using the homogenization buffer and centrifuged at −350,000 g for 30 min. […]
as §1
Differences between two experimental groups are analyzed for statistical significance by using Student's t-test. […]

[4] = tested on: prenatal nicotine exposure mouse model of ADHD; conditions: cited from earlier work
[5] = 0.75 mg/kg MPH administered to adult mice; cited from earlier work
[6] = naltrexone 5 mg/kg prior to MPH 7.5 mg/kg, FIG. 6
[7] = naltrexone 10 mg/kg prior to MPH 7.5 mg/kg, FIG. 6

## C[C@@H](NC(=O)[C@@H](N)Cc1ccc(O)cc1)C(=O)NCC(=O)N(C)[C@@H](Cc1ccccc1)C(=O)NCCO [DAMGO]
[1]
  maximal [35S]GTPγS binding: 1.75 fold of the basal level

## O=C1CC[C@@]2(O)[C@H]3Cc4ccc(O)c5c4[C@@]2(CCN3CC2CC2)[C@H]1O5 [naltrexone]
[2]; naltrexone 1 mg/kg alone, FIG. 5
  time spent in drug-paired chamber, Test sessions compared to PC sessions: Neither saline alone nor naltrexone (1 or 10 mg/kg) alone produces significant changes
[2]; naltrexone 1 mg/kg prior to MPH 7.5 mg/kg, FIG. 6
  CPP score compared to prior treatment with saline: significantly decrease the CPP score
[2]; [6]
  CPP score compared to prior treatment with saline: significantly decrease the CPP score
  CPP score compared to saline control group: not significantly different
[2]; naltrexone 10 mg/kg administered with 7.5 mg/kg methylphenidate
  abuse potential of methylphenidate: completely abolishes the abuse potential of methylphenidate
[2]; naltrexone 10 mg/kg alone, FIG. 5
  time spent in drug-paired chamber, Test sessions compared to PC sessions: Neither saline alone nor naltrexone (1 or 10 mg/kg) alone produces significant changes
[2]; [7]
  CPP score compared to prior treatment with saline: significantly decrease the CPP score
  CPP score compared to saline control group: not significantly different
[2]; naltrexone 1, 5 or 10 mg/kg prior to MPH 7.5 mg/kg, FIG. 6
  dose dependence of the decrease in the CPP score: dose-dependent

## COC(=O)C(c1ccccc1)C1CCCCN1 (centres unmarked) [MPH, methylphenidate]
[3]
  MOPR activity compared to the saline group: no significant difference
[4]; 0.75 mg/kg methylphenidate
  effect on hyperactivity: reduce hyperactivity
[4]; ADHD mouse model
  time after administration at which hyperactivity started to decline: 2 h
[2]; high-dose MPH 7.5 mg/kg i.p., t-test p=0.005, n=6/group
  time spent in drug-paired chamber, Test sessions compared to pre-conditioning sessions: significantly longer period of time in the drug-paired chamber
[2]; high-dose MPH 7.5 mg/kg plus saline, naltrexone experiment, FIG. 5
  time spent in drug-paired chamber, Test sessions compared to pre-conditioning (PC) sessions: significantly longer period of time in the drug-paired chamber
[2]; high-dose MPH 7.5 mg/kg, multiple comparisons test
  CPP score compared to saline-treated group: significant (p<0.05) effects
[2]; high-dose MPH 7.5 mg/kg, naltrexone experiment, p<0.01, FIG. 6
  CPP score compared to saline control: significantly greater than that produced by the saline control
[2]; low dose MPH 0.75 mg/kg i.p., t-test p>0.05
  time spent in drug-paired chamber, Test sessions compared to pre-conditioning sessions: do not show significant differences
[2]; low dose MPH 0.75 mg/kg
  CPP score compared to saline-treated group: no significant difference
[5]
  serum and brain concentrations of D-methylphenidate: equivalent to the levels seen in human subjects given oral therapeutic doses of MPH
